For assay [1], the target named is Human mitochondrial SHMT2 (Homo sapiens (Human), UniProt P34897). In words: SHMT2 activity inhibition assay (serine production from glycine and CH2-THF, mass spectroscopy). Type of assay: biochemical. To be noted: 60 minutes at room temperature. The source says:
(§1) Full length human cytosolic Serine Hydroxymethyl transferase 1 (SHMT1, residues 1-483 in Uniport ID P34896) was expressed as an N-terminal His6 tagged protein and purified in E. coli using nickel capture followed by size-exclusion chromatography. Human mitochondrial SHMT2 (residues 30-504 in Uniprot ID P34897) with mitochondrial leader sequence deleted was expressed as an N-terminal His6 tagged protein and purified in E. coli using nickel capture followed by size-exclusion chromatography.
Serine hydroxymethyltransferases catalyze the reversible hydroxymethylation of glycine to serine, with methylene tetrahydrofolate (CH2-THF) providing the additional carbon. SHMT1 and SHMT2 activity was determined by measuring serine production from glycine and CH2-THF using mass spectroscopy. Briefly, 15 ul of 0.5 mM glycine and 0.2 mM CH2-THF in 20 mM TEA, pH8.0, 0.2 mM NADPH were added to 384 well plate containing 0, 0.05 mM, 0.005 mM or 0.0005 mM of inhibitor. […] The plate was incubated for 60 minutes at room temperature and the reaction was quenched by the addition of 30 ul of 10% trichloroacetic acid. Serine produced was analyzed using Rapidfire 360 and API4000^+ in the positive ion mode.

The target in assay [2] is human cytosolic Serine Hydroxymethyl transferase 1 (SHMT1) (Homo sapiens (Human), UniProt P34896). Put plainly: SHMT1 activity inhibition assay (serine production from glycine and CH2-THF, mass spectroscopy). The assay is classed as biochemical. The following applies: 60 minutes at room temperature.
Text: as §1
Serine hydroxymethyltransferases catalyze the reversible hydroxymethylation of glycine to serine, with methylene tetrahydrofolate (CH2-THF) providing the additional carbon. SHMT1 and SHMT2 activity was determined by measuring serine production from glycine and CH2-THF using mass spectroscopy. Briefly, 15 ul of 0.5 mM glycine and 0.2 mM CH2-THF in 20 mM TEA, pH8.0, 0.2 mM NADPH were added to 384 well plate containing 0, 0.05 mM, 0.005 mM or 0.0005 mM of inhibitor. 15 ul of SHMT1 or 2 were added to initiate the reaction. The plate was incubated for 60 minutes at room temperature and the reaction was quenched by the addition of 30 ul of 10% trichloroacetic acid. Serine produced was analyzed using Rapidfire 360 and API4000^+ in the positive ion mode.

The record followed here is patent publication US11091451B2, “SHMT inhibitors and uses thereof” (Raze Therapeutics, Inc., priority 2016, dated 2021).

pIC50: −log10 of the molar value.

human cytosolic Serine Hydroxymethyl transferase 1 (SHMT1), sequence (P34896 whole entry): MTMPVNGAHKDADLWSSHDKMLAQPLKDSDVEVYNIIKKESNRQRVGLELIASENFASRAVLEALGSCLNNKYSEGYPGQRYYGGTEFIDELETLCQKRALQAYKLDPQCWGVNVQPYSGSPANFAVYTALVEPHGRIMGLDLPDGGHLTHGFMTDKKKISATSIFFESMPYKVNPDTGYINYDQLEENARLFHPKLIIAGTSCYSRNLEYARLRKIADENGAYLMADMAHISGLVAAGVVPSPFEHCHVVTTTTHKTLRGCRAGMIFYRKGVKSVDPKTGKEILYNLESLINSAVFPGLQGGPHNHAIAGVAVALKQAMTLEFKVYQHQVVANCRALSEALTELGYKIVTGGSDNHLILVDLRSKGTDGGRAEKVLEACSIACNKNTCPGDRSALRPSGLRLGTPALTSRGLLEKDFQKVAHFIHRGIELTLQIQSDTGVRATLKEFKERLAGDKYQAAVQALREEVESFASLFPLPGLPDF
Human mitochondrial SHMT2, sequence (P34897 30-504): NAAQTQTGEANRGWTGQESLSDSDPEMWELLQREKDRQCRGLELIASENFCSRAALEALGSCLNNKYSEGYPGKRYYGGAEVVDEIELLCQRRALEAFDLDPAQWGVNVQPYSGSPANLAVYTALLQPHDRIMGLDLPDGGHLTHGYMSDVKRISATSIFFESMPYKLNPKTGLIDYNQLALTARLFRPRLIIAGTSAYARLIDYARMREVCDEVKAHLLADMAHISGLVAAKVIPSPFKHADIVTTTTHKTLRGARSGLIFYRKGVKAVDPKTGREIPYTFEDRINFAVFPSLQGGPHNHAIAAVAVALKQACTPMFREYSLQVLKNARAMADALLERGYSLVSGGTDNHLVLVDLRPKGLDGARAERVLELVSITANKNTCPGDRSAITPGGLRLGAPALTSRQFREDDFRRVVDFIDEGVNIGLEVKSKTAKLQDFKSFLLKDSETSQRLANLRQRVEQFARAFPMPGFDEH

As usually defined, the pIC50 is −log10 of the IC50, conventionally taken in molar units. For the compound `COc1ccccc1-c1nc(CC(=O)N[C@@H](C)C(=O)O)cs1` [Compound I-57], the negative-log IC50 (pIC50) in assay [1] was 4.00 to 5.00; in assay [2] it was 3.30 to 4.00.
For `CC(C)[C@H](NC(=O)Cc1csc(-c2ccc(Cl)cc2Cl)n1)C(=O)O` [Compound I-58] the same measures were 3.30 to 4.00 and 3.30 to 4.00.
The like results for `O=C(O)CNC(=O)Cc1csc(-c2cccc(Cl)c2Cl)n1` [Compound I-59] were, in that order, 3.30 to 4.00 and 3.30 to 4.00.
In the case of `O=C(Cc1csc(-c2cccc(Br)c2)n1)NC(Cc1ccccc1)C(=O)O` (stereo not drawn) [Compound I-60], the pIC50 in assay [1] and in assay [2] was 3.30 to 4.00 throughout.
As to `COc1ccccc1-c1nc(CC(=O)NC(C)C(=O)O)cs1` (stereo not drawn) [Compound I-61], the negative-log IC50 (pIC50) in assay [1] is 4.00 to 5.00; in assay [2], 3.30 to 4.00.
Take `O=C(O)CNC(=O)Cc1csc(-c2ccc3c(c2)OCCO3)n1` [Compound I-62, 2-[2-[2-(2,3-dihydro-1,4-benzodioxin-6-yl)-1,3-thiazol-4-yl]acetamido]acetic Acid]: the negative-log IC50 (pIC50) in assay [1] and in assay [2] was 3.30 to 4.00 in each case.
As to `O=C(Cc1csc(-c2ccc(Cl)cc2)n1)N[C@@H](C(=O)O)c1ccccc1` [Compound I-63], the negative logarithm of the IC50 (pIC50) in assay [1] and in assay [2] was 3.30 to 4.00 each time.
Regarding `CC(C)(C(=O)NCC(=O)O)c1csc(-c2ccc(Cl)cc2Cl)n1` [Compound I-64, 2-[2-[2-(2,4-dichlorophenyl)-1,3-thiazol-4-yl]-2-methylpropanamido]acetic Acid], the negative logarithm of the IC50 (pIC50) in assay [1] and in assay [2] was 3.30 to 4.00 each time.
Regarding `NC(=O)Cc1cc(Cl)ccc1-c1nc(CC(=O)NCC(=O)O)cs1` [Compound I-65, 2-(2-[2-[2-(carbamoylmethyl)-4-chlorophenyl]-1,3-thiazol-4-yl]acetamido)acetic Acid], the pIC50 in assay [1] and in assay [2] was 3.30 to 4.00 throughout.
Consider `O=C(O)CNC(=O)C(c1ccccc1)c1csc(-c2ccc(Cl)cc2Cl)n1` (stereo not drawn) [Compound I-66], for which the negative-log IC50 (pIC50) is below 3.30 in assay [1] and 3.30 to 4.00 in assay [2].
For `CC[C@@H](C)[C@H](NC(=O)Cc1csc(-c2ccc(Cl)cc2Cl)n1)C(=O)O` [Compound I-67] the same measures were 3.30 to 4.00 and 3.30 to 4.00.
For `O=C(Cc1csc(-c2cccc(Cl)c2)n1)N[C@@H](Cc1ccccc1)C(=O)O` [Compound I-68], the negative logarithm of the IC50 (pIC50) in assay [1] and in assay [2] was 3.30 to 4.00 each time.
In the case of `O=C(Cc1csc(-c2ccccc2Cl)n1)N[C@@H](Cc1ccccc1)C(=O)O` [Compound I-69], the pIC50 in assay [1] and in assay [2] was 3.30 to 4.00 each time.
`O=C(O)CNC(=O)Cc1csc(-c2ccc(Cl)cc2CCO)n1` [Compound I-70, 2-(2-[2-[4-chloro-2-(2-hydroxyethyl)phenyl]-1,3-thiazol-4-yl]acetamido) acetic Acid]: the negative logarithm of the IC50 (pIC50) in assay [1] and in assay [2] was 3.30 to 4.00 in each case.
For `C[C@H](NC(=O)Cc1csc(-c2ccccc2F)n1)C(=O)O` [Compound I-71], the negative-log IC50 (pIC50) in assay [1] and in assay [2] was 3.30 to 4.00 in each case.
